Earlier results, collected in patent US5990277A, “Semipeptoid farnesyl protein transferase inhibitors and analogs thereof” (Yissum Research Development Company of the Herbrew …, priority 1996, dated 1999).

Experiments:
[1] = test system: MMTV-v-Ha-ras transgenic mice bearing palpable tumors; conditions: daily administration; cited from earlier work
[2] = target: farnesyl protein transferase (Homo sapiens, UniProt P49354+P49356); conditions: literature; cited from earlier work
met18b-2 cells = conditions: cited from earlier work
[3] = test system: Ras processing in cells transformed with v-ras; conditions: cited from earlier work
[4] = test system: cells transformed by either v-raf or v-mos oncogenes; conditions: cited from earlier work
v-ras-transformed cells = conditions: cited from earlier work
[5] = test system: protein farnesyl transferase in cells; conditions: cited from earlier work
[6] = test system: human adenocarcinoma cell line PSN-1; conditions: PSN-1 cells, altered K-ras and p53 genes; cited from earlier work
tumors in nude mice = conditions: cited from earlier work
[7] = test system: RatI cells transformed with viral H-ras; conditions: cited from earlier work

**Q.** Which results are given for CC[C@H](C)[C@@H](CO[C@@H](Cc1ccccc1)C(=O)N[C@@H](CCS(C)(=O)=O)C(=O)OC(C)C)NC[C@@H](N)CS [L-744,832]?
**A.** tumor response [1]: caused tumor regression; farnesyl protein transferase inhibitory potency in vitro [2]: potent and selective inhibitor

**Q.** With COC(=O)[C@H](CCSC)NC(=O)CN1C(=O)C(N(C)C(=O)[C@@H](N)CS)N=C(c2ccccc2)c2ccccc21 (stereo partly drawn) [BZA-5B] as the compound, how does the “inhibitory potency in cells versus parent compound BZA-2B” value (met18b-2 cells) read?
**A.** much more potent inhibitor

**Q.** For CC[C@H](C)[C@H](NC[C@@H](NC[C@@H](N)CS)[C@@H](C)CC)C(=O)NC1CCOC1=O (stereo partly drawn) [L-731,734, N-{2(S)-[2(R)-amino-3-mercaptopropylamino]-3(S)-methylpentyl}isoleucyl-homoserine lactone], which “effect on Ras processing in cells” value [3] is on record?
**A.** efficiently inhibit Ras processing

**Q.** What about the “farnesyl protein transferase inhibitory potency in vitro” value [2] of the same compound?
**A.** less potent

**Q.** What about the “efficiency of colony transformation” value [4] of the same compound?
**A.** no effect on the efficiency of colony transformation

**Q.** And the “colony formation in soft agar” value (v-ras-transformed cells)?
**A.** decreasing the ability of v-ras-transformed cells to form colonies

**Q.** Which “inhibitory activity in cells compared to compound L-739,750” value [5] does the source give for CC[C@H](C)[C@@H](CO[C@@H](Cc1ccccc1)C(=O)N[C@@H](CCS(C)(=O)=O)C(=O)OC)NC[C@@H](N)CS [L-739,749] here?
**A.** superior inhibitory activity

**Q.** What about the anchorage-independent growth [6] of the same compound?
**A.** inhibit the anchorage-independent growth

**Q.** And the “farnesyl protein transferase inhibitory potency in vitro” value [2]?
**A.** moderate inhibitor

**Q.** What about the growth of tumors (tumors in nude mice) of the same compound?
**A.** suppress the growth of tumors

**Q.** And the anchorage-independent growth [7]?
**A.** suppressing the anchorage-independent growth
